According to publication PMC6095608 (PLoS ONE, 2018):

What was measured:
OCT2 [1] = molecular target: T1, OCT2 (Homo sapiens, UniProt O15244); assay: Inhibition of net [14C]-metformin uptake in MDCK-OCT2 cells; type: cell-based; conditions: 50 μM metformin, 5 min, pH 7.4, efavirenz 0.01–50 μM, read-out: IC50, inhibition of net OCT2-mediated [14C]-metformin uptake
T1 construct: expressed in transfected cells; host or cells: MDCKII (MDCK-OCT2)
T1 sequence (O15244 1-555): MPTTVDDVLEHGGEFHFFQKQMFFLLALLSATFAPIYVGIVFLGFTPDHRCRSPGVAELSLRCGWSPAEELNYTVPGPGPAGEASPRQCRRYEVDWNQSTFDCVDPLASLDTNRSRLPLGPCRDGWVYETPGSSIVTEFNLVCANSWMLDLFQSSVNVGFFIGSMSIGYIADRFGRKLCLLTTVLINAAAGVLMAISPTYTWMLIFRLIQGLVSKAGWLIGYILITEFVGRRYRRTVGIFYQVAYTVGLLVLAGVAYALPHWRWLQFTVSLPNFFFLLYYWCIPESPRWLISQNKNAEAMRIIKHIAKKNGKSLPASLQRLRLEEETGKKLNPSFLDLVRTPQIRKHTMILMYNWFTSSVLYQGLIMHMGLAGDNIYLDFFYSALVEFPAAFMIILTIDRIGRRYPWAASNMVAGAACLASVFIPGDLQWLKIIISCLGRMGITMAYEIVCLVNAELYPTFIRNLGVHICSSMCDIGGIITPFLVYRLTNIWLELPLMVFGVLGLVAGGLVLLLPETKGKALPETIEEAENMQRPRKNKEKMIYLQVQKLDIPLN
Protocol: (§1) The singly-transfected OCT1, OCT2, MATE1 or control MDCK cells were seeded on 12-well plates at a density of 0.5 x 10^6 cells per well and cultivated in standard cultivation medium MEM (Gibco) + 10% FBS. Forty-eight hours after seeding, uptake experiments with radiolabelled metformin were performed. Cells were washed with 500 μl pre-warmed HBSS buffer of pH 7.4 (for OCTs) or 8.0 (for MATE1). Solutions of [^14C]-metformin (50 μM) in HBSS buffer of pH 7.4 or 8.0 with or without efavirenz were then added, and the resulting mixtures were left to stand for an accumulation period of 5 minutes. […] After the accumulation period, the solutions were aspirated and the cells were washed three times with 500 μl ice-cold HBSS buffer of pH 7.4 or 8.0 before being lysed with 0.02% sodium dodecyl sulphate (SDS). The intracellular accumulation of radioactivity was detected using a liquid scintillation counter (Tri-Carb 2910 TR Perkin Elmer), and protein concentrations in the cell lysates were measured by the BCA protein assay. Net transporter-mediated uptake was obtained by subtracting the accumulation of metformin in vector control cells from that in drug transporter-overexpressing cells.
(§2) A p value of ≤ 0.05 was considered statistically significant. […]

MATE1 [2] = molecular target: T2, MATE1 (Homo sapiens, UniProt Q96FL8); assay: Transcellular transport assay across MDCK-MATE1 monolayers; type: cell-based; conditions: 10 μM efavirenz, 2 h
T2 construct: expressed in transfected cells; host or cells: MDCKII (MDCK-MATE1)
T2 sequence (Q96FL8 whole entry): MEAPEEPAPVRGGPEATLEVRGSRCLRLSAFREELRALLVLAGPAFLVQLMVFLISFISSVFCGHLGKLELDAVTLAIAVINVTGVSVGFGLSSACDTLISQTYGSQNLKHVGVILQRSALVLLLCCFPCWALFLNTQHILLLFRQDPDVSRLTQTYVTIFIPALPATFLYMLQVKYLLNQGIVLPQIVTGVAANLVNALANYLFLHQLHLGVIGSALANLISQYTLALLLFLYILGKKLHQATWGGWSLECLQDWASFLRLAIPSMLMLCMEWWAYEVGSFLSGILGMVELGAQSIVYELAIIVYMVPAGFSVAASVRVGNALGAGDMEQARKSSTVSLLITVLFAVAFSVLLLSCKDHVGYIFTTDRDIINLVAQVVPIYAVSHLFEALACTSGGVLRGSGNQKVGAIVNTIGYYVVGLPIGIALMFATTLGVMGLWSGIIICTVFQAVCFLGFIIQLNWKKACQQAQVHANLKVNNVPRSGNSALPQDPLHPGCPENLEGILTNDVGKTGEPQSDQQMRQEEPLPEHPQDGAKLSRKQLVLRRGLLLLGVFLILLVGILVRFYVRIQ
Protocol: (§3) Transport experiments employing polarized monolayers of MDCK-OCT1, MDCK-OCT2, or MDCK-MATE1 cell lines as well as doubly transfected MDCK-OCT1-MATE1 or MDCK-OCT2-MATE1 lines and the non-transfected parental control MDCK-Co cells grown on Transwell 3402 cell culture inserts (3.0 μm pore size, 24 mm diameter; Costar, Corning, NY) were performed as described previously. The number of cells per well was 0.5 x 10^6 in all experiments, and the cells were incubated for 3 days to confluence in standard cultivation medium MEM (Gibco) + 10% FBS. After 3 days’ cultivation, medium was removed from both sides and the cells of the monolayer were washed using pre-warmed PBS. […] The pH of the medium on the basolateral side was 7.4, while that on the apical side was set to 6.0 (adjusted by adding HCl or NaOH, when necessary) to ensure optimal MATE1 transport activity. Cells were incubated at 37°C in 5% CO2 for 2 hours. At the end of the incubation period, 50 μl aliquots were sampled and the rest of the medium was immediately removed. The cells were then washed twice with ice-cold PBS, the membranes supporting cellular monolayers were excised, and the cells were dissolved in a 0.02% SDS solution. The radioactivity of the collected samples and lysed monolayers was measured by liquid scintillation counting (Tri-Carb 2910 TR Perkin Elmer), and the protein concentration of the cell lysates was quantified using the BCA protein assay. Transport rates were recorded in pmol per mg protein in the cellular monolayer.

MATE2-K = molecular target: T3, MATE2-K (Homo sapiens, UniProt Q86VL8); assay: Inhibition of net [14C]-metformin uptake in HEK-MATE2-K cells; type: cell-based; conditions: HEK 293 cells expressing MATE2-K (HEK-MATE2-K), probe [14C]-metformin (50 μM), 50 μM efavirenz (highest tested), 50 μM metformin, p = 0.119, read-out: Inhibition of MATE2-K-mediated metformin transport
T3 construct: expressed in transfected cells; host or cells: HEK293 (transient, HEK-MATE2-K)
T3 sequence (Q86VL8 1-566 isoform Q86VL8-3): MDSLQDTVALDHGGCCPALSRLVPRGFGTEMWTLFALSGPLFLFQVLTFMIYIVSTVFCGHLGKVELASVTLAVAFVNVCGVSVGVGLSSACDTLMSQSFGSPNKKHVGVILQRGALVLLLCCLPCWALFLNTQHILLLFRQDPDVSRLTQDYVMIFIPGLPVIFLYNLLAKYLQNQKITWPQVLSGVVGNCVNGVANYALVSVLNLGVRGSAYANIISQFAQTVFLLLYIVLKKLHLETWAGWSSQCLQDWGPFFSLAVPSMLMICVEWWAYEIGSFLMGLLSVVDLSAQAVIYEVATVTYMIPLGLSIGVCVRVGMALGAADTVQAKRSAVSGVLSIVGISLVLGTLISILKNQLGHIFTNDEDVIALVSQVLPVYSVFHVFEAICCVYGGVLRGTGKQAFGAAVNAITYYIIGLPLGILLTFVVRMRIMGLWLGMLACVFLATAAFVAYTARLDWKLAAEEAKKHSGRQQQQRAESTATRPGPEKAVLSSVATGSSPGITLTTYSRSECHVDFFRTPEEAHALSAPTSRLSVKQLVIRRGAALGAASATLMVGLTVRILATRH
Protocol: Experiments on the uptake of metformin in HEK 293-cells mediated by MATE2-K were performed as previously described. The number of cells per well was 7.0x10^5 for HEK-MATE2-K cells and 3.5x10^5 for HEK-Co cells to compensate for differences in protein concentration in the two lines. To determine the inhibitory effect of efavirenz, this drug was added to the [^14C]-metformin (50 μM) incubation medium at concentrations of 0.01 μM, 0.1 μM, 1 μM, 5 μM, 10 μM, 25 μM, or 50 μM. […] The net uptake was then calculated as described above.

MATE1 [3] = molecular target: T2, MATE1; assay: Inhibition of net [14C]-metformin uptake in MDCK-MATE1 cells; type: cell-based; conditions: 50 μM metformin, 5 min, pH 8.0, efavirenz 0.01–50 μM, read-out: IC50, inhibition of net MATE1-mediated [14C]-metformin uptake
Protocol: as §1, §2

[4] = parameters: method as in PMID 16141277; conditions: humans, plasma proteins; cited from earlier work
[5] = cited from earlier work
MRP transporters = test system: MRP transporters; parameters: method as in PMID 17172311; conditions: only at 50 μM; cited from earlier work
OCT2 [6] = molecular target: T1, OCT2; assay: Transcellular transport assay across MDCK-OCT2 monolayers; type: cell-based; conditions: 10 μM efavirenz, 2 h
Protocol: as §3

- IC50 (OCT2 [1]): 5.66 µM
- Effect on basolateral-to-apical transport of [3H]-MPP+ (MATE1 [2]; 2 nM MPP+, MDCK-MATE1): Inhibition
- Effect on intracellular accumulation of [3H]-MPP+ (MATE1 [2]; 2 nM MPP+, MDCK-MATE1 monolayers): increased
- Effect on intracellular accumulation of [3H]-lamivudine (MATE1 [2]; 10 nM lamivudine, MDCK-MATE1): enhanced
- inhibition at 3 min, 50 μM (MATE2-K): 48.1%
- IC50 (MATE1 [3]): 3.85 µM
- Effect on basolateral-to-apical transport of [3H]-MPP+ (OCT2 [6]; 2 nM MPP+, MDCK-OCT2): Inhibition
- Effect on intracellular accumulation of [3H]-MPP+ (OCT2 [6]; 2 nM MPP+, MDCK-OCT2 monolayers): significantly reduced
- Effect on intracellular accumulation of [3H]-lamivudine (OCT2 [6]; 10 nM lamivudine, MDCK-OCT2): significantly reduced
- Effect on transcellular transport of [3H]-lamivudine (OCT2 [6]; 10 nM lamivudine, basal to apical, MDCK-OCT2): significantly inhibited
SMILES: O=C1Nc2ccc(Cl)cc2[C@@](C#CC2CC2)(C(F)(F)F)O1 [efavirenz, Efavirenz]
- Median unbound percentage [4]: 0.63%
- Efavirenz concentration in the plasma seen in humans (median) ([5]; humans): 6.9 µM
- Efavirenz concentration in the plasma seen in humans (range) ([5]; humans): 0.4 to 48 µM
- Average plasma concentration (cp) of efavirenz ([5]; therapeutically, responding HIV-positive patients): ~ 8.7 μM
- Inhibition of MRP transporters (MRP transporters): inhibit
